Data as given in the kinase profiling compilation of Christmann-Franck et al. (2016).

Key:
Experiment in all cases: radiometric filter-binding kinase assay, Kinase HotSpot
Settings in all cases: compound 0.5 µM; ATP 10 µM
CHEK1 (human) = CHEK1 (human) (UniProt O14757)
TYRO3 (human) = TYRO3 (human) (UniProt Q06418)
NEK2 (human) = NEK2 (human) (UniProt P51955)
CDK2 CCNA2 (human) = CDK2 CCNA2 (human) (UniProt P24941+P20248)
PTK6 (human) = PTK6 (human) (UniProt Q13882)
TSSK2 (human) = TSSK2 (human) (UniProt Q96PF2)
PRKCH (human) = PRKCH (human) (UniProt P24723)
IKBKB (human) = IKBKB (human) (UniProt O14920)
Chain of IKBKB (human) (O14920 whole entry, looked up): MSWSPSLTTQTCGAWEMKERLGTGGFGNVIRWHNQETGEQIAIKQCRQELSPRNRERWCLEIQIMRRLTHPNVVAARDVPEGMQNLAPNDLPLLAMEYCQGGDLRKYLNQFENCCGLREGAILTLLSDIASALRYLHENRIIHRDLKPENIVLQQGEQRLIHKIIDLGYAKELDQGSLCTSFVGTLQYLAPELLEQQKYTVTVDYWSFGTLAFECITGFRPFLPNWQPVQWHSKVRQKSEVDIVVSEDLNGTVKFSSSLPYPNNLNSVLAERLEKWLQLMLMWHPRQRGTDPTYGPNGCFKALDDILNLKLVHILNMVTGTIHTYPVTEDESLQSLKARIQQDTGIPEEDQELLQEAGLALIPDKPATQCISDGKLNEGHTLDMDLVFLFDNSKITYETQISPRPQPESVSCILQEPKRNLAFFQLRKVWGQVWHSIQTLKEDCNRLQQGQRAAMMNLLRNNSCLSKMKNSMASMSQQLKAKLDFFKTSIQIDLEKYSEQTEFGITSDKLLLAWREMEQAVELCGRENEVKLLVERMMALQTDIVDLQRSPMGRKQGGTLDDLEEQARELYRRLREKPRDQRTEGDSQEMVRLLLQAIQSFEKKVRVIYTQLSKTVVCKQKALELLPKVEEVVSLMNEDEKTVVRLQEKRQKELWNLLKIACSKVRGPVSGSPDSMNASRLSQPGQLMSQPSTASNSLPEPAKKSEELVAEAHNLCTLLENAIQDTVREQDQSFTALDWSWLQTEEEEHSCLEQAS

FES (human) = FES (human) (UniProt P07332)
Chain of FES (human) (P07332 whole entry, looked up): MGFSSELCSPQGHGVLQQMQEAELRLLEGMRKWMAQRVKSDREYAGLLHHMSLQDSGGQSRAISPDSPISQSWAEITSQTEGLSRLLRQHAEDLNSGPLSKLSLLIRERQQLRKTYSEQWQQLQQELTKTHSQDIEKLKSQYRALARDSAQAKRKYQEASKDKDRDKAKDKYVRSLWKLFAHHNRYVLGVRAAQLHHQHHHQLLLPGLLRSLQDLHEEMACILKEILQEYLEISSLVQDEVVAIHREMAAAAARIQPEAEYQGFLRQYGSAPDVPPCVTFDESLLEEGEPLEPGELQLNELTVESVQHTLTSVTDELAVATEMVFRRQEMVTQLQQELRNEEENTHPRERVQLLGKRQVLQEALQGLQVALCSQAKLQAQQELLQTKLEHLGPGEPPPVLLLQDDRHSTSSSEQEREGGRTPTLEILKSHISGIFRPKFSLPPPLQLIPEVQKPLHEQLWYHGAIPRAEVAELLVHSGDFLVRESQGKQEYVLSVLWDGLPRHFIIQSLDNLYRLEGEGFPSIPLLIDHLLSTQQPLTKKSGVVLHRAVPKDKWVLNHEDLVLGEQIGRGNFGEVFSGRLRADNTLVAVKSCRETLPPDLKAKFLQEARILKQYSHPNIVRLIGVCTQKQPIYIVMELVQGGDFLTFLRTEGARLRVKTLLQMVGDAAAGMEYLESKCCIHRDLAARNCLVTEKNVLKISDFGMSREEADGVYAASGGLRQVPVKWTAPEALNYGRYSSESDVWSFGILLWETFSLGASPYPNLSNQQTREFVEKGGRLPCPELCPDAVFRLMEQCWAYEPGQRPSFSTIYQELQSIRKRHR

ACVR1B (human) = ACVR1B (human) (UniProt P36896)
SRPK1 (human) = SRPK1 (human) (UniProt Q96SB4)
NUAK2 (human) = NUAK2 (human) (UniProt Q9H093)
EPHA3 (human) = EPHA3 (human) (UniProt P29320)
MAP2K1 (human) = MAP2K1 (human) (UniProt Q02750)
LRRK2 (human) = LRRK2 (human) (UniProt Q5S007)
RPS6KA6 KD1 KD2 (human) = RPS6KA6 KD1 KD2 (human) (UniProt Q9UK32)
SIK2 (human) = SIK2 (human) (UniProt Q9H0K1)
PLK2 (human) = PLK2 (human) (UniProt Q9NYY3)
CDK9 CCNK (human) = CDK9 CCNK (human) (UniProt O75909+P50750)
MARK1 (human) = MARK1 (human) (UniProt Q9P0L2)
RIPK2 (human) = RIPK2 (human) (UniProt O43353)
MAPK13 (human) = MAPK13 (human) (UniProt O15264)
Chain of MAPK13 (human) (O15264 whole entry, looked up): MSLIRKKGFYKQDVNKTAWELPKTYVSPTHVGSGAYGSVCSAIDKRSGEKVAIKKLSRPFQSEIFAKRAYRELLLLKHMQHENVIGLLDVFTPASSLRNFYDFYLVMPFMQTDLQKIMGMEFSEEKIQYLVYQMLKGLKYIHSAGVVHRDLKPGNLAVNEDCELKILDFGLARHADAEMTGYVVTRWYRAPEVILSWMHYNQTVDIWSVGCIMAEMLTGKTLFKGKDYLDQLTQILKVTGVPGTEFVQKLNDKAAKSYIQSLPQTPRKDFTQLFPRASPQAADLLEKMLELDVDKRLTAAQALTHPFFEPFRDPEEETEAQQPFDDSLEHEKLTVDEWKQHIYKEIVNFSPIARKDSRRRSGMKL

CHUK (human) = CHUK (human) (UniProt O15111)
FGR (human) = FGR (human) (UniProt P09769)
PIM2 (human) = PIM2 (human) (UniProt Q9P1W9)
MLTK (human) = MLTK (human) (UniProt Q9NYL2)
Chain of MLTK (human) (Q9NYL2 whole entry, looked up): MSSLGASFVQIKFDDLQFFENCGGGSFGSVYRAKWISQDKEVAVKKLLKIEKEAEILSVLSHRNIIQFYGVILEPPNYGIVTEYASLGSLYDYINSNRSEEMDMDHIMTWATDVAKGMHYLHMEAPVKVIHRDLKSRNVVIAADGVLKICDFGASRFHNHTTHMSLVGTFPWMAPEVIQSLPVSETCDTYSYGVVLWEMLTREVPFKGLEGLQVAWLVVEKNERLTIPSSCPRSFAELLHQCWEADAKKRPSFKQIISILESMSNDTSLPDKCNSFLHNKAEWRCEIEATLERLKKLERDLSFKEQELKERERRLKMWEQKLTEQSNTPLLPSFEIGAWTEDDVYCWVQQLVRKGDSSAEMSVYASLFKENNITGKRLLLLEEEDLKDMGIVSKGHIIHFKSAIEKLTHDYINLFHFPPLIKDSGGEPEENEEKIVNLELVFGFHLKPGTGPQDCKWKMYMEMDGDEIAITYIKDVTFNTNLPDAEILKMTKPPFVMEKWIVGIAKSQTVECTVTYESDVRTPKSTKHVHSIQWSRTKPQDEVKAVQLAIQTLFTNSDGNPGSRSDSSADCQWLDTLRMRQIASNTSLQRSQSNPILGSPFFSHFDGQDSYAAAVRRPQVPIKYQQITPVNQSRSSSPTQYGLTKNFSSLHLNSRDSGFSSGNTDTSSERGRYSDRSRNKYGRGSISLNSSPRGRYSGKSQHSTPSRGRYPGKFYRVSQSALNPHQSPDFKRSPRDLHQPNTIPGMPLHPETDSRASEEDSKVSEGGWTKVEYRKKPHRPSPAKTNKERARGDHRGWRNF

NTRK2 (human) = NTRK2 (human) (UniProt Q16620)
GRK4 (human) = GRK4 (human) (UniProt P32298)
BLK (human) = BLK (human) (UniProt P51451)
ABL2 (human) = ABL2 (human) (UniProt P42684)
Chain of ABL2 (human) (P42684 whole entry, looked up): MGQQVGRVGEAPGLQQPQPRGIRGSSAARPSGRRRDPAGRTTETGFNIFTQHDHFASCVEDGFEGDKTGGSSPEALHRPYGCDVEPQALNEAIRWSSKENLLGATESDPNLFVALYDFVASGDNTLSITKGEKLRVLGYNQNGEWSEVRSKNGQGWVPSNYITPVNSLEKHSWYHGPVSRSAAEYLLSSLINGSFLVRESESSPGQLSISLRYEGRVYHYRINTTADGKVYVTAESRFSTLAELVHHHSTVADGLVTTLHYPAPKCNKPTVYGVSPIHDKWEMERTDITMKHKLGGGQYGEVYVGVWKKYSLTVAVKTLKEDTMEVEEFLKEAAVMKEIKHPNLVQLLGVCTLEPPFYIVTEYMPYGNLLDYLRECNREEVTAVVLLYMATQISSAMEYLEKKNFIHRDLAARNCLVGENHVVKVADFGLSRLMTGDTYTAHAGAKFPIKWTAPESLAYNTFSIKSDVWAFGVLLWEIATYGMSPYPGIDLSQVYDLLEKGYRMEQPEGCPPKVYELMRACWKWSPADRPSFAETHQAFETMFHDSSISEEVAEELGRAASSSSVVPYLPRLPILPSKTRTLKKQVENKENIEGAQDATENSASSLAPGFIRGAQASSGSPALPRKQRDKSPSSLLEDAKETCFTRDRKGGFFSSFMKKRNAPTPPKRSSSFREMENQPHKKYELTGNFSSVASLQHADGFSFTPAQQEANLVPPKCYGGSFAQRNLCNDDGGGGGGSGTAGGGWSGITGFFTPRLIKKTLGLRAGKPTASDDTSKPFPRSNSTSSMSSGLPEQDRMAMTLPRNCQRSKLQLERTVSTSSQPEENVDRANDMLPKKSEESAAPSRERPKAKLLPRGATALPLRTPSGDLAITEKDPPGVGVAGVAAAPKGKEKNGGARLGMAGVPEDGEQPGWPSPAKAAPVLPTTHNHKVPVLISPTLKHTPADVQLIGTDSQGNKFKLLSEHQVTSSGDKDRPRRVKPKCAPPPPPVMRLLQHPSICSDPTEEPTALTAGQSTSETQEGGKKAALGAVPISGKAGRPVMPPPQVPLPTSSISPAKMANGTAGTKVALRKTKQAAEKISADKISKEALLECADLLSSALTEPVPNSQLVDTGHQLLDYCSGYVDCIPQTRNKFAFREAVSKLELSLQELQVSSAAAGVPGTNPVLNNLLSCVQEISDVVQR

CSNK1G1 (human) = CSNK1G1 (human) (UniProt Q9HCP0)
Chain of CSNK1G1 (human) (Q9HCP0 whole entry, looked up): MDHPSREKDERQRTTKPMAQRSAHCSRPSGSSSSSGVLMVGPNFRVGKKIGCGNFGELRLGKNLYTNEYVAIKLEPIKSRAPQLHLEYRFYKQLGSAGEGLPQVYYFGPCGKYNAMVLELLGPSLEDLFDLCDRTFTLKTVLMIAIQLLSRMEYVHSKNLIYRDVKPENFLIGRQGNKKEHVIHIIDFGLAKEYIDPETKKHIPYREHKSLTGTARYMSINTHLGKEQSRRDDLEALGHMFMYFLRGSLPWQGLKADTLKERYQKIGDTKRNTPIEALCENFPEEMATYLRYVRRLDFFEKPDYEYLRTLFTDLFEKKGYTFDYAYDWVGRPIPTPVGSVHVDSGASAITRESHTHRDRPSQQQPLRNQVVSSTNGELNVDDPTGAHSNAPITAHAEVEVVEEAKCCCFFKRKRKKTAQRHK

PLK1 (human) = PLK1 (human) (UniProt P53350)
CHEK2 (human) = CHEK2 (human) (UniProt O96017)
CAMK2B (human) = CAMK2B (human) (UniProt Q13554)
Chain of CAMK2B (human) (Q13554 whole entry, looked up): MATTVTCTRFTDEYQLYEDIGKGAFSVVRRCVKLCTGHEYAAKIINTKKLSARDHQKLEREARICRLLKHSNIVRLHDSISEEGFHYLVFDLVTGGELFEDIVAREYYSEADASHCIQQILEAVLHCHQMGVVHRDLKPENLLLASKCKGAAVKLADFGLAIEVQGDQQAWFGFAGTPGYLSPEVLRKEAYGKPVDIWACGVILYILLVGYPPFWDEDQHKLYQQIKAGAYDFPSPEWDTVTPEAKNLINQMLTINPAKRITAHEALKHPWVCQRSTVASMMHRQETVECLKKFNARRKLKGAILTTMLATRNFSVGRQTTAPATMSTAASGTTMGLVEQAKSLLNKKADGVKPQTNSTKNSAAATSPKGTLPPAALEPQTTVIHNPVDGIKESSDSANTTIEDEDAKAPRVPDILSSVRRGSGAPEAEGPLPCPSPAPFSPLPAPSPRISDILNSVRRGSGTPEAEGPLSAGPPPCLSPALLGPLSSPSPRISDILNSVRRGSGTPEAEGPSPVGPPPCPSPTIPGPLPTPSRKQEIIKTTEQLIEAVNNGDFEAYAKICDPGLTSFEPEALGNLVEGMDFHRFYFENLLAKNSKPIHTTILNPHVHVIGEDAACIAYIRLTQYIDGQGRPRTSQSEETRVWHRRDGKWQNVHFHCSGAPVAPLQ

ZAP70 (human) = ZAP70 (human) (UniProt P43403)
MAP4K4 (human) = MAP4K4 (human) (UniProt O95819)
HIPK2 (human) = HIPK2 (human) (UniProt Q9H2X6)
PRKACA (human) = PRKACA (human) (UniProt P17612)
CDK4 CCND3 (human) = CDK4 CCND3 (human) (UniProt P30281+P11802)
MKNK2 (human) = MKNK2 (human) (UniProt Q9HBH9)
SGK3 (human) = SGK3 (human) (UniProt Q96BR1)
CDK1 CCNB1 (human) = CDK1 CCNB1 (human) (UniProt P06493+P14635)

**Q.** How did the residual activity (CHEK1 (human)) turn out when `O=C(c1ccccc1)c1ccc(N2CCOCC2)cc1O` was run?
**A.** Its residual activity is 108%.

**Q.** And the residual activity (TYRO3 (human))?
**A.** The residual activity was 101%.

**Q.** What about the residual activity (NEK2 (human)) of the same compound?
**A.** Its residual activity is 101%.

**Q.** And the residual activity (CDK2 CCNA2 (human))?
**A.** The residual activity was 99.3%.

**Q.** What about the residual activity (PTK6 (human)) of the same compound?
**A.** Its residual activity is 98.2%.

**Q.** And the residual activity (TSSK2 (human))?
**A.** The residual activity was 104%.

**Q.** And the residual activity (PRKCH (human))?
**A.** The residual activity was 70%.

**Q.** What about the residual activity (IKBKB (human)) of the same compound?
**A.** Its residual activity is 105%.

**Q.** What about the residual activity (FES (human)) of the same compound?
**A.** The residual activity was 95.2%.

**Q.** What about the residual activity (ACVR1B (human)) of the same compound?
**A.** The residual activity was 104%.

**Q.** What about the residual activity (SRPK1 (human)) of the same compound?
**A.** Its residual activity is 94.2%.

**Q.** And the residual activity (NUAK2 (human))?
**A.** The residual activity was 111%.

**Q.** What about the residual activity (EPHA3 (human)) of the same compound?
**A.** The residual activity was 105%.

**Q.** What about the residual activity (MAP2K1 (human)) of the same compound?
**A.** The residual activity was 98.1%.

**Q.** What about the residual activity (LRRK2 (human)) of the same compound?
**A.** The residual activity was 95.4%.

**Q.** And the residual activity (RPS6KA6 KD1 KD2 (human))?
**A.** The residual activity was 101%.

**Q.** What about the residual activity (SIK2 (human)) of the same compound?
**A.** The residual activity was 100%.

**Q.** And the residual activity (PLK2 (human))?
**A.** The residual activity was 111%.

**Q.** What about the residual activity (CDK9 CCNK (human)) of the same compound?
**A.** The residual activity was 97.8%.

**Q.** And the residual activity (MARK1 (human))?
**A.** The residual activity was 97.6%.

**Q.** And the residual activity (RIPK2 (human))?
**A.** The residual activity was 95%.

**Q.** What about the residual activity (MAPK13 (human)) of the same compound?
**A.** Its residual activity is 106%.

**Q.** And the residual activity (CHUK (human))?
**A.** Its residual activity is 101%.

**Q.** What about the residual activity (FGR (human)) of the same compound?
**A.** Its residual activity is 104%.

**Q.** What about the residual activity (PIM2 (human)) of the same compound?
**A.** Its residual activity is 105%.

**Q.** And the residual activity (MLTK (human))?
**A.** The residual activity was 95%.

**Q.** What about the residual activity (NTRK2 (human)) of the same compound?
**A.** Its residual activity is 92.7%.

**Q.** And the residual activity (GRK4 (human))?
**A.** The residual activity was 104%.

**Q.** And the residual activity (BLK (human))?
**A.** The residual activity was 102%.

**Q.** What about the residual activity (ABL2 (human)) of the same compound?
**A.** The residual activity was 105%.

**Q.** And the residual activity (CSNK1G1 (human))?
**A.** The residual activity was 105%.

**Q.** What about the residual activity (PLK1 (human)) of the same compound?
**A.** Its residual activity is 104%.

**Q.** And the residual activity (CHEK2 (human))?
**A.** The residual activity was 106%.

**Q.** And the residual activity (CAMK2B (human))?
**A.** The residual activity was 105%.

**Q.** What about the residual activity (ZAP70 (human)) of the same compound?
**A.** Its residual activity is 95.9%.

**Q.** And the residual activity (MAP4K4 (human))?
**A.** The residual activity was 86.4%.

**Q.** And the residual activity (HIPK2 (human))?
**A.** Its residual activity is 105%.

**Q.** And the residual activity (PRKACA (human))?
**A.** The residual activity was 98.3%.

**Q.** And the residual activity (CDK4 CCND3 (human))?
**A.** The residual activity was 96.2%.

**Q.** What about the residual activity (MKNK2 (human)) of the same compound?
**A.** The residual activity was 90.6%.

**Q.** And the residual activity (SGK3 (human))?
**A.** The residual activity was 105%.

**Q.** And the residual activity (CDK1 CCNB1 (human))?
**A.** Its residual activity is 92.3%.

**Q.** For `CCc1nc(-c2ccc(OC)cc2)[nH]c1-c1ccncc1`, which residual activity (CHEK1 (human)) is on record?
**A.** The residual activity was 98.6%.

**Q.** And the residual activity (TYRO3 (human))?
**A.** The residual activity was 97.9%.

**Q.** And the residual activity (NEK2 (human))?
**A.** The residual activity was 100%.

**Q.** And the residual activity (CDK2 CCNA2 (human))?
**A.** Its residual activity is 99.5%.

**Q.** What about the residual activity (PTK6 (human)) of the same compound?
**A.** Its residual activity is 88.5%.

**Q.** What about the residual activity (TSSK2 (human)) of the same compound?
**A.** Its residual activity is 98.7%.

**Q.** And the residual activity (PRKCH (human))?
**A.** Its residual activity is 93%.

**Q.** What about the residual activity (IKBKB (human)) of the same compound?
**A.** The residual activity was 106%.

**Q.** What about the residual activity (FES (human)) of the same compound?
**A.** Its residual activity is 100%.

**Q.** What about the residual activity (ACVR1B (human)) of the same compound?
**A.** Its residual activity is 86.5%.

**Q.** What about the residual activity (SRPK1 (human)) of the same compound?
**A.** Its residual activity is 106%.

**Q.** And the residual activity (NUAK2 (human))?
**A.** The residual activity was 129%.

**Q.** And the residual activity (EPHA3 (human))?
**A.** The residual activity was 100%.

**Q.** And the residual activity (MAP2K1 (human))?
**A.** Its residual activity is 97.8%.

**Q.** What about the residual activity (LRRK2 (human)) of the same compound?
**A.** The residual activity was 96.7%.

**Q.** And the residual activity (RPS6KA6 KD1 KD2 (human))?
**A.** Its residual activity is 111%.

**Q.** What about the residual activity (SIK2 (human)) of the same compound?
**A.** Its residual activity is 88.3%.

**Q.** And the residual activity (PLK2 (human))?
**A.** Its residual activity is 101%.

**Q.** And the residual activity (CDK9 CCNK (human))?
**A.** The residual activity was 97.9%.

**Q.** What about the residual activity (MARK1 (human)) of the same compound?
**A.** Its residual activity is 99.2%.

**Q.** What about the residual activity (RIPK2 (human)) of the same compound?
**A.** Its residual activity is 95%.

**Q.** And the residual activity (MAPK13 (human))?
**A.** Its residual activity is 112%.

**Q.** And the residual activity (CHUK (human))?
**A.** Its residual activity is 104%.

**Q.** What about the residual activity (FGR (human)) of the same compound?
**A.** Its residual activity is 97.2%.

**Q.** And the residual activity (PIM2 (human))?
**A.** The residual activity was 105%.

**Q.** What about the residual activity (MLTK (human)) of the same compound?
**A.** Its residual activity is 106%.

**Q.** And the residual activity (NTRK2 (human))?
**A.** The residual activity was 105%.

**Q.** And the residual activity (GRK4 (human))?
**A.** Its residual activity is 99.3%.

**Q.** What about the residual activity (BLK (human)) of the same compound?
**A.** The residual activity was 105%.

**Q.** And the residual activity (ABL2 (human))?
**A.** Its residual activity is 98.3%.

**Q.** What about the residual activity (CSNK1G1 (human)) of the same compound?
**A.** Its residual activity is 101%.

**Q.** And the residual activity (PLK1 (human))?
**A.** The residual activity was 103%.

**Q.** And the residual activity (CHEK2 (human))?
**A.** Its residual activity is 102%.

**Q.** What about the residual activity (CAMK2B (human)) of the same compound?
**A.** Its residual activity is 97.1%.

**Q.** What about the residual activity (ZAP70 (human)) of the same compound?
**A.** Its residual activity is 101%.

**Q.** What about the residual activity (MAP4K4 (human)) of the same compound?
**A.** Its residual activity is 91.9%.

**Q.** What about the residual activity (HIPK2 (human)) of the same compound?
**A.** The residual activity was 93.6%.

**Q.** What about the residual activity (PRKACA (human)) of the same compound?
**A.** The residual activity was 100%.

**Q.** What about the residual activity (CDK4 CCND3 (human)) of the same compound?
**A.** Its residual activity is 105%.

**Q.** And the residual activity (MKNK2 (human))?
**A.** Its residual activity is 88.2%.

**Q.** What about the residual activity (SGK3 (human)) of the same compound?
**A.** The residual activity was 99.3%.

**Q.** What about the residual activity (CDK1 CCNB1 (human)) of the same compound?
**A.** The residual activity was 102%.
